Data reported in the supplement of paper PMC5770543.
± gives the standard deviation.

What was measured:
[1] = tested on: Plasmodium falciparum KH004-003 (artemisinin resistant); test: R50 (50% reduction of ring formation, egress/invasion); higher = less potent
Experimental: (§1)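 P. falciparum asexual blood stages. EC50: sorbitol-synchronized 3D7 rings were treated with 2-fold dilutions from 10 µM for 60 h, with parasitemia read by SYBR Green I fluorescence; EC50 listed as 10 means not determined and is left out. Stage transition screen: ~40-42 hpi schizonts were treated at 1, 3 and 10 µM; new rings were counted by Hoechst flow cytometry and % inhibition is relative to DMSO controls (mean of 3 experiments). R50: concentration giving 50% reduction of new ring formation versus DMSO in 3D7, K1 and KH004-003, from flow cytometry after 12-20 h treatment of schizonts.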

[2] = tested on: Plasmodium falciparum 3D7; test: as above
Experimental: as §1

[3] = tested on: Plasmodium falciparum K1 (chloroquine resistant); test: as above
Experimental: as §1

[4] = tested on: Toxoplasma gondii RH tachyzoites; test: median egress time after A23187 ionophore; higher = stronger egress inhibition; conditions: 10 µM; pretreatment time: 24 h
Experimental: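 T. gondii RH tachyzoites expressing firefly luciferase were grown in HFF monolayers for 48 h with compound. % growth inhibition at 10 µM and EC50 (2-fold dilutions from 10 µM) were read by luminescence relative to 1% DMSO; EC50 listed as 10 (not determined, <80% inhibition) is left out. Plaque assays: 50 tachyzoites per well with 10 µM compound for 8-10 days, giving plaque count and area by crystal violet/ImageJ. Egress: median time to egress after 1 µM A23187 ionophore following 24 h of 10 µM compound (DMSO ~1.8 min; >10 = no egress within 10 min).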

[5] = tested on: Plasmodium falciparum 3D7; test: EC50 growth inhibition (60 h, SYBR Green); conditions: stage: ring-stage start
[6] = tested on: Toxoplasma gondii RH tachyzoites; test: % growth inhibition vs DMSO (48 h luciferase); higher = more inhibition; conditions: 10 µM
[7] = tested on: Toxoplasma gondii RH tachyzoites; test: plaque count per well; higher = less inhibition; extreme values may be limits of the assay; conditions: 10 µM; 8-10 days
Procedure, shortened: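 Compound at 10 µM was preseeded onto confluent HFF monolayers in six-well plates, which then received fifty T. gondii RH tachyzoites per well and were left undisturbed for 8 to 10 days. Fixation with methanol and staining with crystal violet followed, and ImageJ was used to image and count plaques in each well. These counts serve as a readout of delayed-death inhibition of parasite growth.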

[8] = tested on: Plasmodium falciparum 3D7; test: % inhibition of schizont-to-ring transition vs DMSO; higher = more inhibition
Procedure, shortened: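 Tightly synchronised P. falciparum schizonts (about 40–42 hours post-invasion, 1% parasitemia, 2.5% hematocrit, AlbuMAX-supplemented RPMI) were exposed to compound at 1, 3 or 10 µM, with vehicle and positive controls. Cells were glutaraldehyde-fixed, Triton-permeabilised, stained with Hoechst 33342 and counted by flow cytometry (at least 100,000 events). Schizont-to-ring transition inhibition is new ring formation relative to vehicle controls, averaged over three experiments.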
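Wherever % growth inhibition vs DMSO (48 h luciferase) is given: tested in triplicate wells of 96-well plates on confluent HFF monolayers, with 1% DMSO wells as negative control in four replicates.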

| SMILES | R50 [1] [µM] | R50 [2] [µM] | R50 [3] [µM] | median egress time [4] [min] | EC50 growth inhibition [5] [nM] | % growth inhibition [6] [%] | plaque count per well [7] | % inhibition of schizont-to-ring transition ([8]; 1 µM) [%] | % inhibition of schizont-to-ring transition ([8]; 3 µM) [%] | % inhibition of schizont-to-ring transition ([8]; 10 µM) [%] |
| --- | --- | --- | --- | --- | --- | --- | --- | --- | --- | --- |
| CC(C)(C)c1ccc(O)c(CNC2CCCCC2)c1 | 0.215 | 0.305 | 0.119 | 2.8 | 93.3 | 7.99 ± 2.4 | 0 | 70.4 | 76.8 | 76.9 |
| CC(=O)NCCc1nc2ccccc2n1Cc1ccc(C(C)C)cc1 | 3.03 | 3.03 | 3.69 | 5.47 | 900 | < 0 | 33 | 37.3 | 61 | 78.1 |
| CCOc1c(Cl)cc(CNC(C)C(O)c2ccccc2)cc1OC (stereo not given) | 2.58 | 3.32 | 1.56 | 3.47 | 926 | 18.8 ± 18 | 0 | 2.61 | 19.5 | 72.7 |
